In patent US7772271B2 (priority 2004, dated 2010):

| SMILES | melting point |
| --- | --- |
| N#Cc1c(-c2ccc(NC(=O)OC(c3ccccc3)C(F)(F)F)cc2)n(C2CCC2)c2cc(OCCCCn3cncn3)ccc12 (stereo not shown) [Compound 2645] | 118 to 120 °C |
| CC(OC(=O)Nc1ccc(-c2c(C#N)c3ccc(OC4CCOCC4)cc3n2C2CC2)cc1)C1CC1 (stereo not shown) [Compound 2647] | 130 to 133 °C |
| CC(OC(=O)Nc1ccc(-c2c(C#N)c3ccc(OC4CCOCC4)cc3n2C2CC2)cc1)C(C)(C)C (stereo not shown) [Compound 2648] | 203 to 205 °C |
| CC(OC(=O)Nc1ccc(-c2c(C#N)c3ccc(OC4CCOCC4)cc3n2C2CC2)cc1)C(F)(F)F (stereo not shown) [Compound 2649] | 207 to 209 °C |
| CC(NC(=O)Nc1ccc(-c2c(C#N)c3ccc(OC4CCOCC4)cc3n2C2CC2)cc1)c1ccc(F)cc1 (stereo not shown) [Compound 2653] | 189 to 192 °C |
| N#Cc1c(-c2ccc(NC(=O)OC(C(F)(F)F)C(F)(F)F)cc2)n(C2CCC2)c2cc(OCC3OCCO3)ccc12 [Compound 2657] | 202 to 205 °C |
| COCCN(C)C(=O)c1ccc2c(C#N)c(-c3ccc(NC(=O)OC(C)C)cc3)n(C3CCC3)c2c1 [Compound 2659] | 102 to 105 °C |
| CC(OC(=O)Nc1ccc(-c2c(C#N)c3ccc(OC4CCOCC4)cc3n2C2CCC2)cc1)C(F)(F)F (stereo not shown) [Compound 2668] | 195 to 197 °C |
| COCCOc1ccc2c(C#N)c(-c3ccc(NC(=O)OC(C)C(C)(C)C)cc3)n(C(C)C)c2c1 (stereo not shown) [Compound 2670] | 204 to 205 °C |
| COCCOc1ccc2c(C#N)c(-c3ccc(NC(C4CC4)C4CC4)cc3)n(C(C)C)c2c1 [Compound 2671] | 148 to 150 °C |
| N#Cc1c(-c2ccc(NC(=O)OC3CCC3)cc2)n(C2CCC2)c2ccc(OCCn3cncn3)cc12 [Compound 2677] | 190 to 192 °C |
| COCCOc1ccc2c(C#N)c(-c3ccc(NC(=O)OC(C)C(F)(F)F)cc3)n(C(C)C)c2c1 (stereo not shown) [Compound 2686] | 162 to 165 °C |
| COCCOc1ccc2c(C#N)c(-c3ccc(NC(=O)OC(C)c4ccc(F)cc4)cc3)n(C(C)C)c2c1 (stereo not shown) [Compound 2687] | 89 to 112 °C |
| COCCOc1ccc2c(C#N)c(-c3ccc(NC(=O)OC(c4ccccc4)C(F)(F)F)cc3)n(C(C)C)c2c1 (stereo not shown) [Compound 2688] | 150 to 155 °C |
| CC(C)OC(=O)Nc1ccc(-c2c(C#N)c3ccc(OCCSc4ccccn4)cc3n2C2CCC2)cc1 [Compound 2697] | 145 to 146 °C |
| CC(C)OC(=O)Nc1ccc(-c2c(C#N)c3ccc(OCCSc4ncccn4)cc3n2C2CCC2)cc1 [Compound 2698] | 69 to 72 °C |
| Cc1nnc(SCCOc2ccc3c(C#N)c(-c4ccc(NC(=O)OC(C)C)cc4)n(C4CCC4)c3c2)s1 [Compound 2699] | 150 to 151 °C |
| CC(OC(=O)Nc1ccc(-c2c(C#N)c3ccc(Oc4ncccn4)cc3n2C2CCC2)cc1)C(F)(F)F (stereo not shown) [Compound 2707] | 211 to 213 °C |
| CC(OC(=O)Nc1ccc(-c2c(C#N)c3ccc(Oc4ncccn4)cc3n2C2CCC2)cc1)c1ccc(F)cc1 (stereo not shown) [Compound 2708] | 200 to 202 °C |

| SMILES | melting point |
| --- | --- |
| N#Cc1c(-c2ccc(NC(=O)OC(c3ccccc3)C(F)(F)F)cc2)n(C2CCC2)c2cc(Oc3ncccn3)ccc12 (stereo not shown) [Compound 2709] | 246 to 248 °C |
| CC(NC(=O)Nc1ccc(-c2c(C#N)c3ccc(Oc4ncccn4)cc3n2C2CCC2)cc1)c1ccc(F)cc1 (stereo not shown) [Compound 2710] | 240 to 242 °C |
| C[C@@H](OC(=O)Nc1ccc(-c2c(C#N)c3ccc(OC4CCOCC4)cc3n2C2CC2)cc1)C1CC1 [Compound 2712] | 149 to 151 °C |
| Cc1nccc(Oc2ccc3c(C#N)c(-c4ccc(NC(=O)O[C@H](C)C5CC5)cc4)n(C4CC4)c3c2)n1 [Compound 2715] | 123 to 125 °C |
| C[C@@H](OC(=O)Nc1ccc(-c2c(C#N)c3ccc(Oc4ncccn4)cc3n2C2CCC2)cc1)c1ccc(F)cc1 [Compound 2716] | 173 to 175 °C |
| COCCOc1ccc2c(C#N)c(-c3ccc(NC(=O)OC(C)(C)C(F)(F)F)cc3)n(C(C)C)c2c1 [Compound 2718] | 188 to 191 °C |
| COCCOc1ccc2c(C#N)c(-c3ccc(NC(=O)O[C@H](C)C4CC4)cc3)n(C(C)C)c2c1 [Compound 2719] | 88 to 100 °C |
| C[C@@H](OC(=O)Nc1ccc(-c2c(C#N)c3cc(OCCCn4ccnc4)ccc3n2C2CCC2)cc1)C1CC1 [Compound 2723] | 182 to 184 °C |
| N#Cc1c(-c2ccc(NC(=O)OCc3ccccc3)cc2)n(C2CCC2)c2ccc(OCCCn3ccnc3)cc12 [Compound 2726] | 229 to 231 °C |
| CC(C)NC(=O)Nc1ccc(-c2c(C#N)c3cc(OCCCn4ccnc4)ccc3n2C2CCC2)cc1 [Compound 2727] | 232 to 234 °C |
| N#Cc1c(-c2ccc(NC(=O)OCc3ccccc3)cc2)n(C2CCC2)c2ccc(OCCCn3cncn3)cc12 [Compound 2732] | 215 to 217 °C |
| C[C@H](OC(=O)Nc1ccc(-c2c(C#N)c3cc(OCCCn4cncn4)ccc3n2C2CCC2)cc1)c1ccccc1 [Compound 2733] | 206 to 208 °C |
| C[C@@H](OC(=O)Nc1ccc(-c2c(C#N)c3cc(OCCCn4cncn4)ccc3n2C2CCC2)cc1)c1ccccc1 [Compound 2734] | 206 to 208 °C |
| COc1ccnc(Oc2ccc3c(C#N)c(-c4ccc(NC(=O)O[C@H](C)C5CC5)cc4)n(C4CCC4)c3c2)n1 [Compound 2736] | 161 to 164 °C |
| COc1ccnc(Oc2ccc3c(C#N)c(-c4ccc(NC(=O)OC(C)C)cc4)n(C4CCC4)c3c2)n1 [Compound 2739] | 179 to 183 °C |
| CC(C)n1c(-c2ccc(NC(=O)O[C@H](C)C3CC3)cc2)c(C#N)c2ccc(OC3CCOCC3)cc21 [Compound 2741] | 208 to 210 °C |
| CC(C)n1c(-c2ccc(NC(=O)O[C@H](C)C3CC3)cc2)c(C#N)c2ccc(O[C@H]3CCOC3)cc21 [Compound 2742] | 189 to 192 °C |
| CC(C)n1c(-c2ccc(NC(=O)O[C@H](C)C3CC3)cc2)c(C#N)c2ccc(O[C@@H]3CCOC3)cc21 [Compound 2743] | 151 to 153 °C |
| COc1ccnc(Oc2ccc3c(C#N)c(-c4ccc(NC(=O)NC(C)C)cc4)n(C4CCC4)c3c2)n1 [Compound 2750] | 221 to 225 °C |

Further lines, results first:

| melting point | SMILES |
| --- | --- |
| 187 to 189 °C | CC(OC(=O)Nc1ccc(-c2c(C#N)c3ccc(OCC4OCCO4)cc3n2C2CCC2)cc1)C(F)(F)F (stereo not shown) [Compound 2646] |
| 195 to 202 °C | CCOc1ccc2c(C#N)c(-c3ccc(S(=O)(=O)N4CCCCC4)cc3)n(C3CCC3)c2c1 [Compound 2661] |
| 184 to 190 °C | CCn1nnc(COc2ccc3c(C#N)c(-c4ccc(NC(=O)OC(C)C)cc4)n(C4CCC4)c3c2)n1 [Compound 2667] |
| 180 to 183 °C | CCOc1ccc2c(C#N)c(-c3ccc(S(=O)(=O)N4CCC[C@H]4CO)cc3)n(C3CCC3)c2c1 [Compound 2689] |
| 170 to 172 °C | CCOc1ccc2c(C#N)c(-c3ccc(S(=O)(=O)N4CCC[C@@H]4CO)cc3)n(C3CCC3)c2c1 [Compound 2690] |
| 155 to 160 °C | C[C@@H](OC(=O)Nc1ccc(-c2c(C#N)c3ccc(OCCCS(C)(=O)=O)cc3n2C2CCC2)cc1)C1CC1 [Compound 2694] |
| 126 to 128 °C | C[C@@H](OC(=O)Nc1ccc(-c2c(C#N)c3ccc(OC4CCOCC4)cc3n2C2CCC2)cc1)C1CC1 [Compound 2696] |
| 132 to 133 °C | CSCCOc1ccc2c(C#N)c(-c3ccc(NC(=O)OC(C)C)cc3)n(C3CCC3)c2c1 [Compound 2700] |
| 116 to 117 °C | COCCOc1ccc2c(C#N)c(-c3ccc(NC(=O)O[C@H](C)C4CC4)cc3)n(C3CCC3)c2c1 [Compound 2702] |
| 166 to 168 °C | C[C@@H](OC(=O)Nc1ccc(-c2c(C#N)c3ccc(O[C@H]4CCOC4)cc3n2C2CCC2)cc1)C1CC1 [Compound 2703] |
| 180 to 183 °C | CCOc1ccc2c(C#N)c(-c3ccc(NC(=O)O[C@H](C)c4ccncc4)cc3)n(C3CCC3)c2c1 [Compound 2705] |
| 180 to 183 °C | CCOc1ccc2c(C#N)c(-c3ccc(NC(=O)O[C@@H](C)c4ccncc4)cc3)n(C3CCC3)c2c1 [Compound 2706] |
| 157 to 159 °C | COCCOc1ccc2c(C#N)c(-c3ccc(NC(=O)O[C@H](C)C4CC4)cc3)n(C3CC3)c2c1 [Compound 2711] |
| 150 to 152 °C | CCSc1ccc2c(C#N)c(-c3ccc(NC(=O)OC(C)C)cc3)n(C3CCC3)c2c1 [Compound 2713] |
| 165 to 168 °C | CC[S+]([O-])c1ccc2c(C#N)c(-c3ccc(NC(=O)OC(C)C)cc3)n(C3CCC3)c2c1 (stereo not shown) [Compound 2714] |
| 149 to 150 °C | CC(OC(=O)Nc1ccc(-c2c(C#N)c3cc(OCCCn4cncn4)ccc3n2C2CCC2)cc1)C1CCC1 (stereo not shown) [Compound 2730] |
| 195 to 197 °C | CCOP(=O)(Nc1ccc(-c2c(C#N)c3ccc(OC4CCOCC4)cc3n2C2CCC2)cc1)OCC [Compound 2744] |
| 207 to 209 °C | CCS(=O)(=O)Nc1ccc(-c2c(C#N)c3ccc(OC4CCOCC4)cc3n2C2CCC2)cc1 [Compound 2745] |
| 185 to 187 °C | CCCS(=O)(=O)Nc1ccc(-c2c(C#N)c3ccc(OC4CCOCC4)cc3n2C2CCC2)cc1 [Compound 2746] |
| 202 to 204 °C | N#Cc1c(-c2ccc(NS(=O)(=O)C3CC3)cc2)n(C2CCC2)c2cc(OC3CCOCC3)ccc12 [Compound 2747] |
| 211 to 213 °C | CC(C)S(=O)(=O)Nc1ccc(-c2c(C#N)c3ccc(OC4CCOCC4)cc3n2C2CCC2)cc1 [Compound 2748] |
| 224 to 226 °C | N#Cc1c(-c2ccc(N3CCCS3(=O)=O)cc2)n(C2CCC2)c2cc(OC3CCOCC3)ccc12 [Compound 2749] |
| 136 to 138 °C | CCN(CC)C(=O)c1ccc(-c2c(C#N)c3ccc(OCCOC)cc3n2C2CCC2)cc1 [Compound 2752] |
| 202 to 204 °C | COCCOc1ccc2c(C#N)c(-c3ccc(C(=O)NC(C)C)cc3)n(C3CCC3)c2c1 [Compound 2753] |
| 148 to 150 °C | COCCOc1ccc2c(C#N)c(-c3ccc(C(=O)N4CCOCC4)cc3)n(C3CCC3)c2c1 [Compound 2754] |
| 166 to 168 °C | COCCOc1ccc2c(C#N)c(-c3ccc(C(=O)N4CCC4)cc3)n(C3CCC3)c2c1 [Compound 2755] |
